Consider five compounds from ChEMBL document CHEMBL3286135, “Antiviral C-25 epimers of 26-acetoxy steroids from the South China Sea gorgonian Echinogorgia rebekka” (J Nat Prod, 2014).

Data set [1] has as its system Respiratory syncytial virus. The data set is described as follows: Antiviral activity against Respiratory syncytial virus infected in human Hep2 cells assessed as virus-induced cytopathicity by XTT assay. Type of data set: functional, organism-based. Conditions: HEp-2.
The nature of data set [2]: Cytotoxicity against mock-infected human Hep2 cells by XTT assay. The data set is classed as cell-based, HEp-2. The note with it: read-out: TC50 (the source's name).
Data set [3] can be described thus: Therapeutic ratio of TC50 for mock-infected human Hep2 cells to IC50 for Respiratory syncytial virus infected in human Hep2 cells. The data set is classed as ADME, cell-based, HEp-2. The note with it: read-out: TI.
For data set [4], the system named is Bacillus cereus. The data set is described as follows: Antibacterial activity against Bacillus cereus by broth dilution assay. Type of data set: functional, organism-based. In general terms: Dilution methods test growth across graded concentrations, often in twofold steps.
In data set [5] the test system is Tetragenococcus halophilus. The data set is described as follows: Antibacterial activity against Tetragenococcus halophilus by broth dilution assay. The data set is classed as functional.
The subject of data set [6] is Staphylococcus epidermidis. The data set is described as follows: Antibacterial activity against Staphylococcus epidermidis by broth dilution assay. Type of data set: functional, organism-based.
For data set [7], the system named is Staphylococcus aureus. As to the kind of experiment: Antibacterial activity against Staphylococcus aureus by broth dilution assay. Type of data set: functional, organism-based.
The test system of data set [8] is Escherichia coli. The data set is described as follows: Antibacterial activity against Escherichia coli by broth dilution assay. Type of data set: functional, organism-based.
Data set [9] concerns Pseudomonas putida. As to the kind of experiment: Antibacterial activity against Pseudomonas putida by broth dilution assay. Type of data set: functional, organism-based.
The test system of data set [10] is Nocardia brasiliensis. The data set is described as follows: Antibacterial activity against Nocardia brasiliensis by broth dilution assay. The data set is classed as functional, organism-based.
Data set [11] deals with Vibrio parahaemolyticus. As to the kind of experiment: Antibacterial activity against Vibrio parahaemolyticus by broth dilution assay. The data set is classed as functional, organism-based.
Data set [12] deals with HL-60. As to the kind of experiment: Cytotoxicity against human HL60 cells by MTT assay. The data set is classed as functional, cell-based.
The subject of data set [13] is K562. The data set is described as follows: Cytotoxicity against human K562 cells by MTT assay. Type of data set: functional, cell-based. A general note: Tetrazolium assays rely on reduction of a dye to a coloured formazan, in cell work by metabolically active cells.
The subject of data set [14] is HeLa. The data set is described as follows: Cytotoxicity against human HeLa cells by SRB assay. The data set is classed as functional, cell-based.
The subject of data set [15] is A549. The data set is described as follows: Cytotoxicity against human A549 cells by SRB assay. Type of data set: functional, cell-based. (In general: The SRB assay estimates cell density from bound dye.)

Activity calls are given as the source filed them. The rule behind the calls is not given here.

In general, IC50 refers to the concentration at which inhibition is half-maximal. `CC(=O)OC[C@H](C)[C@H](C)/C=C/[C@@H](C)[C@H]1CC[C@H]2[C@@H]3CC(=O)[C@@]4(O)C[C@@H](O)CC[C@]4(C)[C@H]3CC[C@]12C`: in [1], the IC50 worked out at 0.19 µM. For the same compound, the CC50 in data set [2] was 24.4 µM. Besides, the selectivity ratio in data set [3] is 128. Moreover, the outcome in [4], in data set [5], in data set [6], in [7], in [8] and in data set [9] was inactive. Further, the outcome in data set [10], in data set [11], in data set [12], in data set [13], in data set [14] and in data set [15] was inactive.
In the case of `CC(=O)OCC(C)/C=C/[C@@H](C)[C@H]1CC[C@H]2[C@@H]3CC(=O)[C@@]4(O)C[C@@H](O)CC[C@]4(C)[C@H]3CC[C@]12C` (stereo not given in full), the IC50 in [1] was determined as 3.23 µM; in [13] it was 4.19 µM. Besides, the CC50 in data set [2] was determined as 12.9 µM. Also, the selectivity ratio in [3] is 4. For the same compound, the outcome in [4], in [5], in data set [6], in [7], in data set [8] and in data set [9] was inactive. The result in [10] and in data set [11] was inactive.
Regarding `CC(=O)OC[C@@H](C)[C@H](C)/C=C/[C@@H](C)[C@H]1CC[C@H]2[C@@H]3CC(=O)[C@@]4(O)C[C@@H](O)CC[C@]4(C)[C@H]3CC[C@]12C`, the 50% inhibitory concentration (IC50) came to 0.19 µM in [1], 8.99 µM in [12] and 6.36 µM in data set [13]. The CC50 in data set [2] worked out at 0.38 µM. For the same compound, in data set [3], the selectivity ratio was found to be 2. For the same compound, the outcome in data set [4], in data set [5], in data set [6], in data set [7], in data set [8] and in data set [9] was inactive. The outcome in data set [10] and in data set [11] was inactive.
As for `NC(=O)c1ncn([C@@H]2O[C@H](CO)[C@@H](O)[C@H]2O)n1` [RIBAVIRIN], the 50% inhibitory concentration (IC50) in data set [1] was determined as 20.4 µM. Further, the CC50 in data set [2] is above 3000 µM. For the same compound, in data set [3], the selectivity ratio is above 147.
As for `CC(=O)OC[C@@H](C)C/C=C/[C@@H](C)[C@H]1CC[C@H]2[C@@H]3CC(=O)[C@@]4(O)C[C@@H](O)CC[C@]4(C)[C@H]3CC[C@]12C`, the half-maximal inhibitory concentration (IC50) turned out to be 0.78 µM in data set [1] and 0.85 µM in data set [13]. Also, the CC50 in [2] worked out at 12.6 µM. Also, in data set [3], the selectivity ratio worked out at 16. For the same compound, the outcome in [4], in data set [5], in data set [6], in [7], in data set [8] and in [9] was inactive. The result in [10] and in data set [11] was inactive.
